Measured values published in patent US20260001914A1, “MACROCYCLIC PEPTIDES TARGETING KRAS” (Merck Sharp & Dohme LLC, priority 2022, published 2026).
*1 amine or outer side, *2 acyl side, *3 side chain or, on linkers, in order; H or OH if unused. Where a SMILES comes first, the peptide text is derived from it. [ ]: non-standard residue; d: D form. Lys(N3) = [N-]=[N+]=NCCCC[C@H](N)C(=O)O; Phe(4-NH2) = Nc1ccc(C[C@H](N)C(=O)O)cc1; Phe(4-F) = N[C@@H](Cc1ccc(F)cc1)C(=O)O; NHCH2CH2SCH2CO = O=C(CSCCN[*:1])[*:2]; NMeF = CN[C@@H](Cc1ccccc1)C(=O)O; 3Pal = N[C@@H](Cc1cccnc1)C(=O)O; 4Pal = N[C@@H](Cc1ccncc1)C(=O)O; hSer = N[C@@H](CCO)C(=O)O; Nle = CCCC[C@H](N)C(=O)O; Nva = CCC[C@H](N)C(=O)O

molecular target: KRAS-G12D protein (Homo sapiens, UniProt P01116, G12D); experiment: SOS-mediated nucleotide exchange assay (BODIPY-GDP / Tb-streptavidin TR-FRET); format: biochemical
Sequence (P01116 1-188 isoform P01116-2 G12D): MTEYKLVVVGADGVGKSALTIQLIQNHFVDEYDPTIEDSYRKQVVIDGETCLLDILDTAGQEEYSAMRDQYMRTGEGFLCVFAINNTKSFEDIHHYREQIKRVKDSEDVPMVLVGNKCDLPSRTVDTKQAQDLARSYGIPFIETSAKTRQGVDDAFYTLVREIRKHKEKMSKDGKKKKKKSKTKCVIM

Structure (SMILES)	EC50
CCCC[C@@H]1NC(=O)[C@H](Cc2ccc(O)cc2)NC(=O)[C@H](CC(C)C)NC(=O)[C@H](Cc2ccc(O)cc2)NC(=O)[C@H](CCCNC(=N)N)NC(=O)[C@H](Cc2ccc(F)cc2)NC(=O)CSCCNC(=O)[C@H](Cc2ccccc2)N(C)C1=O [compound 75, cyclo(Phe4F-R-Y-L-Y-Nle-NMeF-Cysteamine-ClAc)] (cyclo(LY[Nle][NMeF][NHCH2CH2SCH2CO][Phe(4-F)]RY))	2.51 µM
CCCC[C@@H]1NC(=O)[C@H](Cc2ccc(O)cc2)NC(=O)[C@H](CCC)NC(=O)[C@H](Cc2ccc(O)cc2)NC(=O)[C@H](CCCNC(=N)N)NC(=O)[C@H](Cc2ccccc2)NC(=O)CSCCNC(=O)[C@H](Cc2ccccc2)N(C)C1=O [compound 76, cyclo(F-R-Y-Nva-Y-Nle-NMeF-Cysteamine-ClAc)] (cyclo(FRY[Nva]Y[Nle][NMeF][NHCH2CH2SCH2CO]))	5.31 µM
CCCC[C@@H]1NC(=O)[C@H](Cc2ccc(O)cc2)NC(=O)[C@H](CCOC)NC(=O)[C@H](Cc2ccc(O)cc2)NC(=O)[C@H](CCCNC(=N)N)NC(=O)[C@H](Cc2ccccc2)NC(=O)CSCCNC(=O)[C@H](Cc2ccccc2)N(C)C1=O [compound 77, cyclo(F-R-Y-hSOMe-Y-Nle-NMeF-Cysteamine-ClAc)] (cyclo(FRY[hSer](Me)Y[Nle][NMeF][NHCH2CH2SCH2CO]))	2.85 µM
CCCC[C@@H]1NC(=O)[C@H](Cc2ccc(O)cc2)NC(=O)[C@H](CC(C)C)NC(=O)[C@H](Cc2ccc(N)cc2)NC(=O)[C@H](CCCNC(=N)N)NC(=O)[C@H](Cc2ccccc2)NC(=O)CSCCNC(=O)[C@H](Cc2ccccc2)N(C)C1=O [compound 79, cyclo(F-R~Phe4NH2-L-Y-Nle-NMeF-Cysteamine-ClAc)] (cyclo(FR[Phe(4-NH2)]LY[Nle][NMeF][NHCH2CH2SCH2CO]))	2.36 µM
CCCC[C@@H]1NC(=O)[C@H](CCCNC(=N)N)NC(=O)[C@H](Cc2ccccc2)NC(=O)CSCCNC(=O)[C@H](Cc2ccccc2)N(C)C(=O)[C@H](CCCC)NC(=O)[C@H](Cc2ccc(O)cc2)NC(=O)[C@H](CC(C)C)NC1=O [compound 81, cyclo(F-R-Nle-L-Y-Nle-NMeF-Cysteamine-ClAc)] (cyclo(FR[Nle]LY[Nle][NMeF][NHCH2CH2SCH2CO]))	7.98 µM
CCC[C@@H]1NC(=O)[C@H](Cc2ccc(O)cc2)NC(=O)[C@H](CC(C)C)NC(=O)[C@H](Cc2ccc(O)cc2)NC(=O)[C@H](CCCNC(=N)N)NC(=O)[C@H](Cc2ccccc2)NC(=O)CSCCNC(=O)[C@H](Cc2ccccc2)N(C)C1=O [compound 83, cyclo(F-R-Y-L-Y-Nva-NMeF-Cysteamine-ClAc)]	6.35 µM
CCC[C@@H]1NC(=O)[C@H](Cc2ccc(OC)cc2)NC(=O)[C@H](CC(C)C)NC(=O)[C@H](Cc2cccnc2)NC(=O)[C@H](CCCNC(=N)N)NC(=O)[C@H](Cc2ccc(F)cc2)NC(=O)CSCCNC(=O)[C@H](Cc2ccccc2)N(C)C1=O [compound 87, cyclo(Phe4F-R-3Pal-L-TyrOMe-Nva-NMeF-Cysteamine-ClAc)] (cyclo([3Pal]LY(Me)[Nva][NMeF][NHCH2CH2SCH2CO][Phe(4-F)]R))	1.6 µM
CCC[C@@H]1NC(=O)[C@H](Cc2ccc(OC)cc2)NC(=O)[C@H](CC(C)C)NC(=O)[C@H](Cc2ccncc2)NC(=O)[C@H](CCCNC(=N)N)NC(=O)[C@H](Cc2ccc(F)cc2)NC(=O)CSCCNC(=O)[C@H](Cc2ccccc2)N(C)C1=O [compound 88, cyclo(Phe4F-R-4Pal-L-TyrOMe-Nva-NMeF-Cysteamine-ClAc)] (cyclo([4Pal]LY(Me)[Nva][NMeF][NHCH2CH2SCH2CO][Phe(4-F)]R))	3.01 µM
CCCC[C@@H]1NC(=O)[C@H](CCCCN=[N+]=[N-])NC(=O)[C@H](CCCNC(=N)N)NC(=O)[C@H](Cc2ccc(F)cc2)NC(=O)CSCCNC(=O)[C@H](Cc2ccccc2)N(C)C(=O)[C@H](CCCC)NC(=O)[C@H](Cc2ccc(O)cc2)NC1=O [compound 89, cyclo(Phe4F-R-LysN3-Nle-Y-Nle-NMeF-Cysteamine-ClAc)] (cyclo([Lys(N3)][Nle]Y[Nle][NMeF][NHCH2CH2SCH2CO][Phe(4-F)]R))	3.53 µM
